Consider 30 molecules from PubChem BioAssay AID179 (DTP/NCI, 2004).

The assay has as its system CEM cells HIV-1 protection, formazan growth assay. Put plainly: NCI AIDS Antiviral Assay. Particulars: for IC50: measured here: growth of uninfected CEM cells. The procedure, abridged:
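Five concentrations of each compound were applied to infected and uninfected human CEM cells. Protection from HIV-1 was judged from growth measured with a soluble formazan assay.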

SMILES strings stand for the structures. Activity calls are given as the source filed them.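 The calls were made as follows: active = compounds giving half or more protection of infected cells from virus-caused growth loss, again on retest; inactive = the rest.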

Turning to `C1CC2=C(C1)C1=S(S2)SC2=C1CCC2`, the result was inactive.
Consider `COc1ccc(-c2cc(-c3ccc4c(c3)CC(C)O4)nc(N)n2)cc1` (stereo unspecified), for which the EC50 was above 30.2 µM and the IC50 was found to be 20 µM.
Turning to `CCOC(=O)c1cn(C)nc1N/C(C)=C\C(=O)c1ccccc1`, the EC50 is above 200 µM and the half-inhibitory concentration (IC50) was found to be 75.9 µM.
The like results for `Clc1ccc(C2=C(c3ccccc3)C(c3ccc(Cl)cc3)N3C(=N[C@H]4CCCC[C@@H]43)N2)cc1` (stereo partly specified) were, in that order, above 200 µM and 20.9 µM.
Consider `O=C(O)CN(c1ccc(Cl)cc1)S(=O)(=O)c1ccccc1`, for which the outcome was inactive.
`Nc1ccc2ccccc2c1N=Nc1ccc(/C=C/c2ccc(N=Nc3c(N)ccc4ccccc34)cc2S(=O)(=O)O)c(S(=O)(=O)O)c1`: the EC50 is 63.1 µM and the concentration for half-maximal inhibition (IC50) was 115 µM.
Regarding `O=c1oc2cc(O)ccc2c(O)c1C(c1cccnc1)c1c(O)c2ccc(O)cc2oc1=O`, the result was inactive.
With `O=c1[nH]cnc2c1sc(=S)n2-c1ccccc1`, the EC50 was above 100 µM and the concentration for half-maximal inhibition (IC50) is 70.8 µM.
As to `O=C1Nc2nc3ccccc3n2N=C2CCCC12` (stereo unspecified), the result was inactive.
`COc1ccc2c(c1)CC/C2=C\CC1(C)C(=O)CCC1=O`: the EC50 is above 200 µM and the IC50 is 107 µM.
Consider `CCOC(=O)C(C(=O)OCC)C(C(=O)OCC)C(=O)OCC`, for which the EC50 was above 200 µM and the IC50 is above 200 µM.
As to `O=c1[nH]c(N/N=C\C(=N/Nc2nc3ccccc3c(=O)[nH]2)C(O)C(O)C(O)CO)nc2ccccc12` (stereo unspecified), the EC50 was above 200 µM and the half-maximal inhibitory concentration (IC50) is above 200 µM.
As to `[N-]=[N+]=Nc1c(N2CCOCC2)c(Cl)nc2ccccc12`, the EC50 is above 200 µM and the IC50 was 55 µM.
For `CC[N+](CC)(CCNCC(N)=O)CC(N)=O`, in that order: above 200 µM and above 200 µM.
For `O=c1c2cc([N+](=O)[O-])ccc2[nH]n1Cc1ccccc1Cl`, in that order: above 200 µM and 41.7 µM.
`COc1ccc2c(c1O)C(=O)C(CCC(=O)O)CC2` (stereo unspecified): the outcome was inactive.
`COc1cccc2c1OC1c3ccccc3OCC1(O)C2` (stereo unspecified): the result was inactive.
In the case of `COc1ccc([C@@H]2CC(=O)NCCCNCCCCNCCCN2)cc1`, the EC50 was above 200 µM and the IC50 came to 123 µM.
Turning to `FC(F)(F)c1ccc2c(c1)N(CCCNCCN1CCOCC1)c1ccccc1S2`, the EC50 was above 355 µM and the IC50 amounted to 20.9 µM.
The like results for `CCCSS[C@H]1NC(=O)[C@H]1NC(=O)COc1ccccc1` were, in that order, above 21.9 µM and above 21.9 µM.
Molecule `CC(=O)c1c(O)c(C)c(O)c2c1OC1=CC(=O)C(C(C)=O)C(=O)C12C` (stereo unspecified) showed a 50% effective concentration (EC50) above 200 µM.
Consider `O=C1NC(=O)C(=Cc2ccccc2F)C(=O)N1`, for which the EC50 was above 1070 µM and the IC50 was above 1070 µM.
Regarding `Cc1cn(C2CC(N=[N+]=[N-])C(COC(=O)CCCCCCCCCCCOc3ccccc3)O2)c(=O)[nH]c1=O` (stereo unspecified), the EC50 was 0.0501 µM and the IC50 was 102 µM.
On to `COc1cc2c(cc1OC)C(c1ccc(N=Cc3ccc(N(C)C)cc3)cc1)N(C(=S)Nc1cc(Cl)ccc1Cl)CC2` (stereo unspecified), for which the result was inactive.
Regarding `O=C1C(=Nc2ccccc2)Oc2cc(O)ccc21`, the EC50 was above 200 µM and the IC50 was 17.8 µM.
For `O=C(CC1C(=O)c2ccccc2C1=C1C(=O)c2ccccc2C1=O)c1ccccc1` (stereo unspecified), in that order: above 9.55 µM and 5.5 µM.
For `CCCCCCC1CCC2CCCC(C)N12` (stereo unspecified), the EC50 was above 162 µM and the half-inhibitory concentration (IC50) was above 162 µM.
As for `O=C(Nc1ccc(N=Nc2ccc(S(=O)(=O)O)cc2)cc1)c1ccc(N=Nc2c(S(=O)(=O)O)cc(O)c3c(NC(=O)c4ccccc4)cc(S(=O)(=O)O)cc23)cc1`, the result was active.
As to `CC(C)(C)OC(=O)NC(Cc1cc(C(C)(C)C)c(O)c(C(C)(C)C)c1)C(=O)O` (stereo unspecified), the EC50 is above 200 µM and the IC50 came out at 61.7 µM.
For `c1scc2c1COCCOCCOCCOCc1cscc1COCCOCCOCCOC2`, in that order: above 347 µM and above 347 µM.
